Measured values taken from US9439431B2, “Pesticidal mixtures comprising isoxazoline derivatives” (Syngenta Participations AG, priority 2011, dated 2016).

Columns and labels:
Type in all cases: cell-based
[1] = test system: Mycosphaerella arachidis (syn. Cercospora arachidicola); assay: Mycosphaerella arachidis (syn. Cercospora arachidicola) growth inhibition in nutrient broth (microtiter plate, photometric); details: approximately 5-6 days
Method: (§1) Brown leaf spot of groundnut (peanut): Conidia of the fungus from cryogenic storage were directly mixed into nutrient broth (potato dextrose broth). After placing a (DMSO) solution of the test compounds into a microtiter plate (96-well format) the nutrient broth containing the fungal spores was added. The test plates were incubated at 24° C. and the inhibition of growth was determined photometrically after approximately 5-6 days at 620 nm. Two replicates per treatment were evaluated

Gaeumannomyces graminis = Gaeumannomyces graminis growth inhibition in nutrient broth (microtiter plate, photometric); details: 48 hours
Method: as §1, with “Mycelial fragments” for “Brown leaf spot of groundnut (peanut): Conidia”, “48 hours” for “approximately 5-6 days”, “evaluated.” for “evaluated”

Septoria tritici = Septoria tritici (leaf blotch) growth inhibition in nutrient broth (microtiter plate, photometric); details: 72 hours
Method: as §1, with “Conidia” for “Brown leaf spot of groundnut (peanut): Conidia”, “72 hours.” for “approximately 5-6 days at 620 nm.”, “evaluated.” for “evaluated”

Work on `Cn1cc(C(=O)Nc2cccc3c2C2CCC3C2=C(Cl)Cl)c(C(F)F)n1` (centres unmarked) [C-IIIA] yielded an Observed control % ([1]; C-IIIA 0.0156 ppm alone) of 20.0% and an Observed control % ([1]; C-IIIA 0.0313 ppm alone) of 90.0%.
In the case of `CO/C=C(/C(=O)OC)c1ccccc1Oc1cc(Oc2ccccc2C#N)ncn1` [azoxystrobin, Azoxystrobin], the Observed control % (Gaeumannomyces graminis; azoxystrobin 0.0625 ppm alone) is reported as 0.0%, the Observed control % (Gaeumannomyces graminis; azoxystrobin 0.1250 ppm alone) is reported as 20.0% and the Observed control % (Gaeumannomyces graminis; azoxystrobin 0.2500 ppm alone) is reported as 20.0%. It also gave an Observed control % (Gaeumannomyces graminis; azoxystrobin 0.5000 ppm alone) of 50.0%, an Observed control % (Gaeumannomyces graminis; azoxystrobin 1.0000 ppm alone) of 50.0% and an Observed control % (Gaeumannomyces graminis; azoxystrobin 2.0000 ppm alone) of 50.0%.
`CC(C1CC1)C(O)(Cn1cncn1)c1ccc(Cl)cc1` (centres unmarked) [cypropconazole, Cyproconazole] gave an Observed control % (Septoria tritici; cypropconazole 0.0625 ppm alone) of 0.0%, an Observed control % (Septoria tritici; cypropconazole 0.1250 ppm alone) of 0.0% and an Observed control % (Septoria tritici; cypropconazole 0.2500 ppm alone) of 0.0%. It also gave an Observed control % (Septoria tritici; cypropconazole 0.5000 ppm alone) of 70.0%, an Observed control % (Septoria tritici; cypropconazole 1.0000 ppm alone) of 90.0% and an Observed control % (Septoria tritici; cypropconazole 2.0000 ppm alone) of 90.0%.
